PubChem BioAssay (NCI)
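Step 1: Grow cells in 96-well plates. Step 2: Expose to compound for 48 hours at 5 concentrations. Step 3: Interpolate endpoints linearly; if unreached, use highest concentration. The concentration for 50% growth inhibition is given as GI50. TGI denotes the concentration required for complete inhibition of growth.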

Key:
Assay in all cases: inhibition of tumour cell growth, NCI panel, 48 h
[1] = system: 786-0 renal
[2] = system: A498 renal
[3] = system: A549 NSCLC
[4] = system: ACHN renal
[5] = system: BT-549 breast
[6] = system: CAKI-1 renal
[7] = system: CCRF-CEM leukemia
[8] = system: COLO 205 colon
[9] = system: DU-145 prostate
[10] = system: EKVX NSCLC
[11] = system: HCT-116 colon
[12] = system: HCT-15 colon
[13] = system: HL-60(TB) leukemia
[14] = system: HOP-62 NSCLC
[15] = system: HOP-92 NSCLC
[16] = system: HS 578T breast
[17] = system: HT29 colon
[18] = system: IGROV1 ovarian
[19] = system: K-562 leukemia
[20] = system: KM12 colon
[21] = system: LOX IMVI melanoma
[22] = system: M14 melanoma
[23] = system: MALME-3M melanoma
[24] = system: MCF7 breast
[25] = system: MDA-MB-231 breast
[26] = system: MDA-MB-435
[27] = system: MDA-N
[28] = system: MOLT-4 leukemia
[29] = system: NCI-H226 lung
[30] = system: NCI-H23 lung
[31] = system: NCI-H460 lung
[32] = system: NCI-H522 lung
[33] = system: NCI/ADR-RES ovarian
[34] = system: OVCAR-3 ovarian
[35] = system: OVCAR-4 ovarian
[36] = system: OVCAR-5 ovarian
[37] = system: OVCAR-8 ovarian
[38] = system: PC-3 prostate
[39] = system: RPMI-8226 leukemia
[40] = system: RXF 393 renal
[41] = system: SF-268 CNS
[42] = system: SF-295 CNS
[43] = system: SF-539 CNS
[44] = system: SK-MEL-2 melanoma
[45] = system: SK-MEL-28 melanoma
[46] = system: SK-MEL-5 melanoma
[47] = system: SK-OV-3 ovarian
[48] = system: SN12C renal
[49] = system: SNB-19 CNS
[50] = system: SR leukemia
[51] = system: SW-620 colon
[52] = system: TK-10 renal
[53] = system: U251 CNS
[54] = system: UACC-257 melanoma
[55] = system: SNB-75 CNS
[56] = system: UACC-62 melanoma
[57] = system: UO-31 renal
[58] = system: HCC-2998 colon
[59] = system: T-47D breast

## O=C1CSC(=S)N1c1ccco1
[1]
  TGI: 61 µM
[2]
  TGI: > 100 µM
[3]
  TGI: > 100 µM
[4]
  TGI: > 100 µM
[5]
  TGI: 50.4 µM
[6]
  TGI: > 100 µM
[7]
  TGI: > 100 µM
[8]
  TGI: > 100 µM
[9]
  TGI: > 100 µM
[10]
  TGI: > 100 µM
[11]
  TGI: > 100 µM
[12]
  TGI: 50.9 µM
[13]
  TGI: > 100 µM
[14]
  TGI: > 100 µM
[15]
  TGI: > 100 µM
[16]
  TGI: > 100 µM
[17]
  TGI: > 100 µM
[18]
  TGI: > 100 µM
[19]
  TGI: > 100 µM
[20]
  TGI: 52.6 µM
[21]
  TGI: > 100 µM
[22]
  TGI: > 100 µM
[23]
  TGI: > 100 µM
[24]
  TGI: > 100 µM
[25]
  TGI: 92.7 µM
[26]
  TGI: 75.6 µM
[27]
  TGI: 45.4 µM
[28]
  TGI: > 100 µM
[29]
  TGI: > 100 µM
[30]
  TGI: > 100 µM
[31]
  TGI: > 100 µM
[32]
  TGI: 64.1 µM
[33]
  TGI: > 100 µM
[34]
  TGI: > 100 µM
[35]
  TGI: > 100 µM
[36]
  TGI: > 100 µM
[37]
  TGI: > 100 µM
[38]
  TGI: > 100 µM
[39]
  TGI: > 100 µM
[40]
  TGI: > 100 µM
[41]
  TGI: > 100 µM
[42]
  TGI: > 100 µM
[43]
  TGI: > 100 µM
[44]
  TGI: > 100 µM
[45]
  TGI: > 100 µM
[46]
  TGI: > 100 µM
[47]
  TGI: > 100 µM
[48]
  TGI: > 100 µM
[49]
  TGI: > 100 µM
[50]
  TGI: > 100 µM
[51]
  TGI: > 100 µM
[52]
  TGI: > 100 µM
[53]
  TGI: > 100 µM
[54]
  TGI: > 100 µM

## CC12C3C4C1C1C2C3C41CO (stereo not drawn)
[1]
  TGI: > 100 µM
[2]
  TGI: > 100 µM
[3]
  TGI: > 100 µM
[4]
  TGI: > 100 µM
[6]
  TGI: > 100 µM
[7]
  TGI: > 100 µM
[8]
  TGI: > 100 µM
[9]
  TGI: > 100 µM
[10]
  TGI: > 100 µM
[11]
  TGI: > 100 µM
[12]
  TGI: > 100 µM
[13]
  TGI: > 100 µM
[15]
  TGI: > 100 µM
[17]
  TGI: > 100 µM
[18]
  TGI: > 100 µM
[19]
  TGI: > 100 µM
[20]
  TGI: > 100 µM
[21]
  TGI: > 100 µM
[22]
  TGI: > 100 µM
[24]
  TGI: > 100 µM
[25]
  TGI: > 100 µM
[26]
  TGI: > 100 µM
[27]
  TGI: > 100 µM
[28]
  TGI: > 100 µM
[29]
  TGI: > 100 µM
[31]
  TGI: > 100 µM
[33]
  TGI: > 100 µM
[34]
  TGI: > 100 µM
[35]
  TGI: > 100 µM
[36]
  TGI: > 100 µM
[37]
  TGI: > 100 µM
[40]
  TGI: > 100 µM
[42]
  TGI: > 100 µM
[43]
  TGI: > 100 µM
[44]
  TGI: > 100 µM
[45]
  TGI: > 100 µM
[46]
  TGI: > 100 µM
[47]
  TGI: > 100 µM
[48]
  TGI: > 100 µM
[49]
  TGI: > 100 µM
[55]
  TGI: > 100 µM
[50]
  TGI: > 100 µM
[51]
  TGI: > 100 µM
[52]
  TGI: > 100 µM
[53]
  TGI: > 100 µM
[54]
  TGI: > 100 µM
[56]
  TGI: > 100 µM
[57]
  TGI: > 100 µM

## CN(CCCCCl)P(=O)(OCCS(=O)(=O)CC(NC(=O)CCC(N)C(=O)O)C(=O)NC(C(=O)O)c1ccccc1)OCC1OC(n2ccc(N)nc2=O)C(O)C1O (stereo not drawn)
[1]
  GI50: 32.2 µM
  TGI: > 75 µM
[2]
  GI50: > 55.1 µM
  TGI: > 75 µM
[3]
  GI50: 4.45 µM
  TGI: > 75 µM
[4]
  GI50: 16.7 µM
  TGI: > 75 µM
[5]
  GI50: 48.7 µM
  TGI: > 75 µM
[6]
  GI50: 11 µM
  TGI: > 75 µM
[7]
  GI50: 0.632 µM
  TGI: > 75 µM
[8]
  GI50: 22 µM
  TGI: > 75 µM
[9]
  GI50: 9.1 µM
  TGI: > 75 µM
[10]
  GI50: 67.4 µM
  TGI: > 75 µM
[58]
  GI50: 28 µM
  TGI: > 75 µM
[11]
  GI50: 5.22 µM
  TGI: > 75 µM
[12]
  GI50: > 75 µM
  TGI: > 75 µM
[13]
  GI50: 2.84 µM
  TGI: > 30.3 µM
[14]
  GI50: 33.7 µM
  TGI: > 75 µM
[15]
  GI50: 4.8 µM
  TGI: 74.1 µM
[16]
  GI50: > 36.8 µM
  TGI: > 75 µM
[17]
  GI50: 32.2 µM
  TGI: > 75 µM
[18]
  GI50: 3.31 µM
  TGI: > 47.3 µM
[19]
  GI50: 7.36 µM
  TGI: > 75 µM
[20]
  GI50: 27.4 µM
  TGI: > 75 µM
[21]
  GI50: 45.5 µM
  TGI: > 75 µM
[22]
  GI50: 4.37 µM
  TGI: > 75 µM
[23]
  GI50: 12.6 µM
  TGI: > 75 µM
[24]
  GI50: 3.27 µM
  TGI: > 75 µM
[25]
  GI50: > 75 µM
  TGI: > 75 µM
[26]
  GI50: 28.3 µM
  TGI: > 75 µM
[28]
  GI50: 0.851 µM
  TGI: > 31.8 µM
[29]
  GI50: > 70.7 µM
  TGI: > 75 µM
[30]
  GI50: 22.6 µM
  TGI: > 75 µM
[31]
  GI50: 6.4 µM
  TGI: > 75 µM
[32]
  GI50: 10.5 µM
  TGI: > 75 µM
[33]
  GI50: 17.8 µM
  TGI: > 75 µM
[34]
  GI50: 33.7 µM
  TGI: > 75 µM
[35]
  GI50: 47.5 µM
  TGI: > 75 µM
[36]
  GI50: > 26.1 µM
  TGI: > 75 µM
[37]
  GI50: 5.4 µM
  TGI: > 75 µM
[38]
  GI50: 2.26 µM
  TGI: > 75 µM
[39]
  GI50: 14.7 µM
  TGI: > 68.8 µM
[40]
  GI50: > 75 µM
  TGI: > 75 µM
[41]
  GI50: 49.8 µM
  TGI: > 75 µM
[42]
  GI50: > 58.8 µM
  TGI: > 75 µM
[43]
  GI50: > 75 µM
  TGI: > 75 µM
[44]
  GI50: > 75 µM
  TGI: > 75 µM
[45]
  GI50: 26.2 µM
  TGI: > 75 µM
[46]
  GI50: 20.4 µM
  TGI: > 75 µM
[47]
  GI50: 57.1 µM
  TGI: > 75 µM
[48]
  GI50: > 60 µM
  TGI: > 75 µM
[49]
  GI50: 45.8 µM
  TGI: > 75 µM
[55]
  GI50: 40.4 µM
  TGI: 74.6 µM
[50]
  GI50: 1.39 µM
  TGI: > 51.2 µM
[51]
  GI50: > 44.9 µM
  TGI: > 75 µM
[59]
  GI50: 23.1 µM
  TGI: > 75 µM
[52]
  GI50: 73.4 µM
  TGI: > 75 µM
[53]
  GI50: 29.9 µM
  TGI: > 75 µM
[54]
  GI50: 21.1 µM
  TGI: > 69.8 µM
[56]
  GI50: 35.8 µM
  TGI: > 75 µM
[57]
  GI50: 8.17 µM
  TGI: > 59.7 µM
